Measured values taken from US11718610B2, “Compounds containing benzosultam” (MEDSHINE DISCOVERY INC., priority 2020, dated 2023).
Where two headings read alike, the source gives them in different places.

Key:
Calu-6 cells = experiment: Calu-6 (Kras Q61K) antiproliferative activity experiment (CellTiterGlo); format: cell-based, human; details: cultured three days
Description: Experimental Embodiment 1: Calu-6 (Kras^Q61K) Antiproliferative Activity Experiment
(1) cell culture medium: 88% RPMI-1640, 10% fetal bovine serum, 1% L-glutamine and 1% penicillin-streptomycin;
(2) culture medium, trypsin and DPBS were preheated in a 37° C. water bath;
(3) the original culture medium was removed in the cell culture flask and washed once with 6 mL of PBS;
(4) 3.5 mL of trypsin was added to the cell culture flask, and the cell culture flask was shaken gently, and the trypsin was removed after full contact with the cell, and then the culture flask was placed into a 37° C. incubator containing 5% CO2 for about 1 minute;
(5) the cells were resuspended with 10 mL of cell culture medium, and about 0.6 mL of cell suspension (ViCell XR) was taken out for counting;
(§1) (6) the cell suspension was diluted with culture medium to a cell density required for plating of 2.5×10^4 cells per mL;
(7) 100 μL of PBS was added to each well around the cell plate, and 40 μL of cell suspension was added to the other wells, and placed in a 37° C. incubator containing 5% CO2 for overnight culture.
(§2) (8) The required cell amount and culture medium were taken based on the new T75 culture flask for continued culture.
(§3) (1) the compound to be tested was prepared into […] solution with DMSO;
(2) 9 μL of the compound was taken and added to Echo shallow well plate (Labcyte, #LP-0200), and the shallow well plate was centrifuged at 1000 rpm for 10 seconds;
(3) DPBS at the periphery of the cell plate was sucked out;
(4) the compound was gradient diluted and administrated with Echo, and 10 concentration gradients of each compound were diluted, and 100 nL of the diluent was added to the 384 cell plate separately, and then the cell plate was put back to the incubator and cultured for three days;
(5) then 100 μL of DPBS was added to the periphery of the cell plate.
(1) CTG was added and the plate was read: 20 μL of CellTiterGlo was added to each well of the cell plate, and the cell plate was shaken in the dark for 10 min. and the plate was read on Envision.

HCT116 cells = experiment: HCT116 (Kras G13D) antiproliferative activity experiment (CellTiter Glo); format: cell-based; details: Homo sapiens, HCT-116, 72 h, cultured 3 days
Description: Experimental Embodiment 2: HCT116 (Kras^G13D) Antiproliferative Activity Experiment
(1) cell culture medium: 89% Mc′Coy 5A, 10% fetal bovine serum and 1% penicillin-streptomycin;
(2) culture medium and trypsin were preheated in a 37° C. water bath;
(3) the culture medium was removed in the cell culture flask and washed once with 1 mL of trypsin;
(4) 1 mL of trypsin was added to the cell culture flask, and the cell culture flask was shaken gently, and the trypsin was removed after full contact with the cell, and then the culture flask was placed into a 37° C. incubator containing 5% CO2 for about 1 minute;
(5) the cells were resuspended with 2 mL of cell culture medium, and about 0.01 mL of cell suspension was taken out for counting;
as §1
(7) 100 μL of culture medium was added to each well around the cell plate, and 80 μL of cell suspension was added to the other wells, and placed in a 37° C. incubator containing 5% CO2 for overnight culture.
as §2, §3
(2) 9 concentration gradients and 3-fold dilutions were performed on the compounds, that is, a double-duplicate experiment was set from 6 mmol to 2.7 μmol, and 78 μL of culture medium was added to the middle plate, and then 2 μL of gradient diluted compound per well was transferred to the middle plate according to the corresponding position, and after mixing, 20 μL per well was transferred to the cell plate, and the final concentration of the compound transferred to the cell plate was 30 μmol to 13.7 nmol. The cell plate was placed in a carbon dioxide incubator and cultured for another 3 days.
(1) CTG was added and the plate was read: 20 μL of CellTiter Glo was added to each well of the cell plate, and the cell plate was shaken in the dark for 10 min;
(2) plates were read on Victor Nivo.
The equation (Sample-Min)/(Max-Min)*100% was used to convert the original data into inhibition rate, and the IC50 value could be obtained by curve fitting with four parameters (obtained by “log (inhibitor) vs. response—variable slope” mode in GraphPad Prism).

[1] = Pharmacokinetics of single intravenous and oral administration in mice; format: in vivo; details: for Cmax / Tmax: 50 mg/kg/day, single oral administration; for Cmax: read-out: Maximum plasma drug concentration Cmax; for Vd / clearance / half-life: single intravenous administration, 0.5 mg/kg/day; for Vd: read-out: Apparent distribution volume Vdss; for clearance: read-out: Clearance rate Cl; for half-life: read-out: Half-life (T1/2) (converted); for Tmax: read-out: Peak time Tmax
Description: (§4) Experimental Embodiment 6: Pharmacokinetics Study of Single Intravenous and Oral Administration in Mice and Dogs
(§5) This experiment was aimed to study the pharmacokinetics of the test compound in mice and dogs in vivo after a single oral administration of the compound.
(§6) After intravenous or oral administration, blood samples were collected and the actual blood collection time was recorded. After the blood sample was collected, the sample was immediately transferred to a labeled centrifuge tube containing K2-EDTA, and then the plasma was taken after centrifugation. The plasma was transferred to a precooled centrifuge tube, quickly frozen in dry ice, and stored in an ultra-low temperature refrigerator at −70±10° C. until LC-MS/MS analysis.
(§7) Pharmacokinetic software was used to process the plasma drug concentration data of the compound with […] model. The peak concentration (Cmax) and peak time (Tmax), as well as the end time of quantification, were obtained directly from the plasma drug concentration-time graph. The following pharmacokinetic parameters were calculated by logarithmic linear trapezoidal method: half-life (T1/2), apparent distribution volume (Vdss) and clearance rate (Cl), and the area under the time-plasma concentration curve from 0 to the end time point (AUC0-last).

[2] = Pharmacokinetics of single intravenous and oral administration in dogs; format: in vivo; details: dog
Description: as §4, §5, §6, §7

Row | SMILES | IC50 (Calu-6 cells; Homo sapiens, Calu-6, 72 h) [nM] | IC50 (HCT116 cells) [nM] | Cmax ([1]; mouse, plasma, po) [µM] | Vd ([1]; mouse, plasma) [L/kg] | clearance ([1]; mouse, plasma) [mL/min/kg] | half-life ([1]; mouse, plasma) [h] | Tmax ([1]; mouse, plasma) [h] | Apparent distribution volume ([2]; intravenous injection, 2 mg/kg/day) [L/kg] | Maximum plasma drug concentration ([2]; oral, 10 mg/kg/day) [nmol/L] | Peak time ([2]; oral, 10 mg/kg/day) [h] | clearance ([2]; plasma, intravenous injection, 2 mg/kg/day, read-out: Clearance rate) [mL/min/kg] | half-life ([2]; plasma, intravenous injection, 2 mg/kg/day, read-out: Half-life (T1/2) (converted)) [h] | bioavailability ([2]; plasma, oral 10 mg/kg/day vs intravenous 2 mg/kg/day) [%] | IC50 (Calu-6 cells) [nM] | Cmax [1] [µM]
1 | [2H]C1([2H])CC(Nc2ncc(Cl)c(-c3ccc4c(c3)S(=O)(=O)N([C@H](C)C(=O)N[C@H](CO)c3cc(F)cc(OC)c3)C4)n2)CC([2H])([2H])O1 [Compound 9] | 222 | 105 | 124 | 0.297 | 7.03 | 1.26 | 1.5 | – | – | – | – | – | – | – | –
2 | COc1cc(F)cc([C@@H](CO)NC(=O)[C@@H](C)N2Cc3ccc(-c4nc(N[C@H]5CCOC[C@H]5F)ncc4Cl)cc3S2(=O)=O)c1 [Compound 11] | – | 123 | 157 | 0.422 | 13.8 | 1.17 | 0.75 | – | – | – | – | – | – | – | –
3 | COc1cc(F)cc([C@@H](CO)NC(=O)[C@@H](C)N2Cc3ccc(-c4nc(NC5CCOCC5)ncc4Br)cc3S2(=O)=O)c1 [Compound 3] | 300 | 138 | 156 | 0.656 | 19 | 2.18 | 1 | 0.112 | 26700 | 3.00 | 1.34 | 4.3 | 59.8 | – | –
4 | COc1cc(F)cc([C@@H](CO)NC(=O)[C@@H](C)N2Cc3ccc(-c4nc(NC5CCOCC5)ncc4Cl)cc3S2(=O)=O)c1 [Compound 1] | – | 103 | – | 0.4 | 10.3 | 1.16 | 1 | – | – | – | – | – | – | 88.5 | 73.4
